# “Also recorded” adds a separate entry of the source.
# Experiments:
# [1] = test system: Cyp3a; test: Oxidation of 7-BQ by liver microsomes
# [2] = 1'-Hydroxymidazolam pharmacokinetics after IV or oral midazolam; conditions: for Decrease in AUC for 1'-hydroxymidazolam compared to wild type: midazolam 1 mg/kg IV, rifampicin pre-treated
# Method: On day 4 of the study midazolam (1 mg/kg) was administered by IV injection to animals from groups 1-6 and orally (2 mg/kg) to mice from groups 7-9. Blood samples were collected at 2, 5, 10, 20, 30, 45, 60, 90, 120 and 150 min (serial bleeds) after IV dosing, at 10, 20, 40, 60, 90, 120, 240 and 360 min after the oral dosing, for PK analysis (Table 3).
# Total concentrations of 1′-hydroxymidazolam were measured following pre-treatment of blood with B-glucuronidase. The pharmacokinetics of the 1′-hydroxymidazolam after the IV injection of the parent compound are presented on FIG. 1s.
# [3] = test system: Cyp3a; test: Oxidation of BFC by liver and intestinal microsomes; format: in vitro ADME, mouse
# [4] = test system: Cyp2b10 and Cyp2c29; test: 16β-Hydroxylation of testosterone by liver microsomes; conditions: liver microsomes of both transgenic strains
# [5] = test system: Cyp3a; test: 6β-Hydroxylation of testosterone by liver and intestinal microsomes; conditions: Cyp3a cluster KO and Cyp3a11 KO
# [6] = Method: The study consisted of 4 groups with 4 animals per group. […] On day 4 of the study midazolam (1 mg/kg) was administered by IP injection and 10 μL blood samples were collected at 10, 20, 40, 60, 120, 240 and 360 min for PK analysis (Table 1).
# [7] = test system: Cyp1a1 and Cyp1a2; test: Ethoxyresorufin de-ethylation activity (EROD) of liver microsomes; format: in vivo, mouse; conditions: both strains
# From the text: (B)—Ethoxyresorufin de-ethylation; (C)—methoxyresorufin de-methylation. Data are mean±SD (n=4).
# Ethoxyresorufin de-ethylation activity (EROD) was similar in both Cyp3a cluster KO and wild type mouse liver microsomes. EROD is catalysed by both Cyp1a 1 and Cyp1a2 isoforms, with Cyp1a1 making the major contribution. […] There was no difference in methoxyresoryfin de-methylation (MROD) activity between wild type and Cyp3a cluster KO mice. MROD is catalysed predominantly by Cyp1a2.
# [8] = test system: Cyp3a; test: Oxidation of DBF by liver and intestinal microsomes
structure (smiles),measurement,setting,value
"c1ccc(COc2ccc3cccnc3c2)cc1 [7-BQ, 7-benzyloxyquinoline]","Activity towards 7-BQ in Cyp3a cluster KO, level compared to the wild type mice",[1]; conclusion statement,below 20%
same,"7-BQ oxidation in Cyp3a cluster KO liver microsomes, % of corresponding C57BL/6J group",[1]; control animals,18%
same,"7-BQ oxidation in Cyp3a cluster KO liver microsomes, % of corresponding C57BL/6J group",[1]; rifampicin treated animals,6.7%
OCc1ncc2n1-c1ccc(Cl)cc1C(c1ccccc1F)=NC2 [1′-hydroxymidazolam],Decrease in AUC for 1'-hydroxymidazolam compared to wild type,[2]; Cyp3a11 KO,~2 times
same,Decrease in AUC for 1'-hydroxymidazolam compared to wild type,[2]; Cyp3a cluster KO,~3 times
same,Terminal phase elimination of 1'-hydroxymidazolam compared to other strains,"[2]; Cyp3a cluster KO, midazolam IV",slightly slower elimination
"O=c1cc(C(F)(F)F)c2ccc(OCc3ccccc3)cc2o1 [BFC, 7-benzyloxy-4-trifluoromethylcoumarin]",BFC activity between liver microsomal samples,"[3]; C57BL/6J, Cyp3a cluster KO, Cyp3a11 KO liver microsomes",no difference
same,BFC oxidation in intestinal microsomes of transgenic mice,[3]; intestinal microsomes,small but statistically significant increase
C[C@]12CC[C@H]3[C@@H](CCC4=CC(=O)CC[C@@]43C)[C@@H]1CC[C@@H]2O [testosterone],16β-Hydroxylation of testosterone compared to wild type,[4],increased
same,6β-hydroxylation of testosterone compared to wild type,[5],significant decrease
CO[C@H]1/C=C/O[C@@]2(C)Oc3c(C)c(O)c4c(O)c(c(/C=N/N5CCN(C)CC5)c(O)c4c3C2=O)NC(=O)/C(C)=C\C=C\[C@H](C)[C@H](O)[C@@H](C)[C@@H](O)[C@@H](C)[C@H](OC(C)=O)[C@@H]1C [rifampicin],Effect of rifampicin treatment on midazolam elimination,"[6]; rifampicin 60 mg/kg 3 daily doses, midazolam 1 mg/kg IP day 4, both strains, higher effect in C57BL/6J",accelerated elimination
same,EROD metabolism after rifampicin,[7],small induction
Cc1ncc2n1-c1ccc(Cl)cc1C(c1ccccc1F)=NC2 [midazolam],Absorption after IP administration,"[6]; midazolam 1 mg/kg IP, both mouse strains",fast absorption
same,"Midazolam AUC / PK, Cyp3a cluster KO compared to wild type","[6]; midazolam 1 mg/kg IP, control (untreated) animals",similar; also recorded: no difference
same,"Difference in midazolam AUC, Cyp3a cluster KO vs wild type",[6]; rifampicin treated mice,1.6 times
"O=C(OCc1ccccc1)c1ccccc1-c1c2ccc(=O)cc-2oc2cc(OCc3ccccc3)ccc12 [DBF, dibenzylfluorescein]",DBF oxidation by liver microsomes compared to wild type,[8]; Cyp3a cluster KO and Cyp3a11 KO,pronounced decrease
same,"DBF oxidation by intestinal microsomes, wild type vs knockout strains",[8]; intestinal microsomes,no statistically significant difference
